This assay is described as follows: in vitro test of lightening of synthetic melanin (absorbance at 405 nm). The assay is classed as biochemical. The note with it: melanin absorbance at 405 nm relative to vehicle control, two weeks. Here is the method: Fabiana imbricata extract (having between 15,000 and 30,000 units/g of glucose oxidase activity) was examined for its ability to lighten melanin in an in vitro test. A solution of synthetic melanin at a concentration of 0.025% in dimethyl sulfoxide was prepared. 1 ml was added to each well of a 24-well plate. A 1% stock solution of Fabiana imbricata extract was prepared in phosphate-buffered saline and diluted serially at a ratio of 1:2 yielding 0.5%, 0.25% and 0.125% solutions of Fabiana imbricata extract. Solutions of glucose were prepared similarly. 10 microliters of each concentration of Fabiana imbricata extract was added along with 10 microliters of glucose to 1 ml of the melanin solution in each well of the microplate. Each concentration was tested in triplicate. Three wells received the phosphate-buffered saline as vehicle control. Hydrogen peroxide at 0.3, 0.03 and 0.003% was added to 3 wells each as positive control. The microplate was incubated at room temperature and treatments described above were repeated for a total of ten times over two weeks. At the end of the incubation period, melanin absorbance was measured at 405 nm using a spectrophotometer. Results are summarized in the table below as percent of melanin absorbance relative to vehicle control. A lower absorbance indicates lightening of melanin.

With `OO` [Example H2O2, Hydrogen peroxide], the “% Relative Absorbance” value worked out at 87.5% (0.003% H2O2 positive control), 70.6% (0.03% H2O2 positive control) and 30.6% (0.3% H2O2 positive control).

The values are drawn from patent US20150342853A1, “Topical Lightening Composition and Methods of Use Thereof” (Avon Products, Inc., priority 2014, published 2015).
